Results taken from patent publication US20110313672A1, “CELLULAR ANTIOXIDANT ACTIVITY (CAA) ASSAY” (CORNELL UNIVERSITY, priority 2007, published 2011).

Tests used:
[1] = in vitro; details: human
Method: (§1) Briefly, HepG2 cells are seeded at 4×10^4/well on a 96-well plate in 100 μL growth medium and incubated for 24 h at 37° C. The medium is removed and the cells are washed with PBS. Treatments of fruit extracts or antioxidant compounds in 100 μL treatment medium (Williams' Medium E supplemented with 2 mM L-glutamine and 10 mM Hepes) are applied to the cells and the plates are incubated at 37° C. for 24 h. The treatment medium is removed and the cells are washed with PBS. A volume of 50 μL/well methylene blue staining solution (98% HBSS, 0.67% glutaraldehyde, 0.6% methylene blue) is applied to each well and the plate is incubated at 37° C. for 1 h.
(§2) Excess dye is removed by immersing the plate in fresh deionized water until the water appears clear. The excess water should be tapped out of the wells and the plate allowed to air-dry briefly before addition of 100 μL elution solution (49% PBS, 50% ethanol, 1% acetic acid) to each well. The microplate is then placed on a bench-top shaker for 20 minutes to allow uniform elution. The absorbance is read at 570 nm with blank subtraction using, for example a MRX II DYNEX spectrophotometer (DYNEX Inc., Chantilly, Va.). Concentrations of pure compounds or fruit extracts that decrease the absorbance by more than 10% when compared to the control are considered to be cytotoxic.
(§3) Cytotoxicity was measured using the method of Oliver et al. (31) with modifications by our laboratory (32). […] The medium was removed and the cells were washed with PBS. Treatments of fruit extracts or antioxidant compounds in 100 μL treatment medium (Williams' Medium E supplemented with 2 mM L-glutamine and 10 mM Hepes) were applied to the cells and the plates were incubated at 37° C. for 24 h. The treatment medium was removed and the cells were washed with PBS. A volume of 50 μL/well methylene blue staining solution (98% HBSS, 0.67% glutaraldehyde, 0.6% methylene blue) was applied to each well and the plate was incubated at 37° C. for 1 h. The dye was removed and the plate was immersed in fresh deionized water three times, or until the water was clear. The water was tapped out of the wells and the plate was allowed to air-dry briefly before 100 μL elution solution (49% PBS, 50% ethanol, 1% acetic acid) was added to each well. The microplate was placed on a bench-top shaker for 20 minutes to allow uniform elution. The absorbance was read at 570 nm with blank subtraction using the MRX II DYNEX spectrophotometer (DYNEX Inc., Chantilly, Va.). Concentrations of pure compounds or fruit extracts that decreased the absorbance by more than 10% when compared to the control were considered to be cytotoxic.
(§4) The median cytotoxic concentration (CC50) was calculated for each fruit.
(§5) Briefly, HepG2 cells were seeded at 4×10^4/well on a 96-well plate in 100 μL growth medium and incubated for 24 h at 37° C. The medium was removed, and the cells were washed with PBS. Flavonoids in 100 μL growth medium were applied to the cells, and the plates were incubated at 37° C. for 24 h. The medium was removed, and the cells were washed with PBS before a volume of 50 μL/well methylene blue staining solution (98% HBSS, 0.67% glutaraldehyde, 0.6% methylene blue) was applied to each well, and the plate was incubated at 37° C. for 1 h. The dye was removed, and the plate was immersed in fresh deionized water until the water was clear. The water was tapped out of the wells, and the plate was allowed to air-dry briefly before 100 μL of elution solution (49% PBS, 50% ethanol, 1% acetic acid) was added to each well. The microplate was placed on a benchtop shaker for 20 min to allow uniform
(§6) elution. The absorbance was read at 570 nm with blank subtraction using the MRX II Dynex spectrophotometer (Dynex Inc., Chantilly, Va.). The median cytotoxic concentration (CC50) was calculated for each flavonoid.

[2] = test system: HepG2 cells; experiment: in vitro; details: for CC50: read-out: cytotoxicity CC50, Example 3, median cytotoxic concentration
Method: as §1, §2, §3, §4, §5, §6

[3] = Example 1, dose at which the cell number is reduced by more than 10% after 24 h treatment

| Molecule | CC50 at 24 h [1] | Cytotoxicity (cytotoxic concentration) ([2]; human, 24 h) | CC50 at 24 h ([1]; HepG2 cells) | also measured |
| --- | --- | --- | --- | --- |
| O=C(O[C@@H]1Cc2c(O)cc(O)cc2O[C@@H]1c1ccc(O)c(O)c1)c1cc(O)c(O)c(O)c1 [ECG, (−)-epicatechin gallate] | > 200 µM | – | – | – |
| Oc1cc(O)c2c(c1)O[C@H](c1cc(O)c(O)c(O)c1)[C@H](O)C2 [EGC, (−)-epigallocatechin] | > 200 µM | – | – | – |
| O=c1c(O)c(-c2ccc(O)cc2)oc2cc(O)cc(O)c12 [Kaempferol, kaempferol] | > 100 µM | 30 µM | – | – |
| O=c1cc(-c2ccc(O)c(O)c2)oc2cc(O)cc(O)c12 [Luteolin, luteolin] | > 80 µM | 20 µM | – | – |
| O=c1c(O)c(-c2cc(O)c(O)c(O)c2)oc2cc(O)cc(O)c12 [Myricetin, myricetin] | > 200 µM | 200 µM | – | – |
| O=c1c(O[C@@H]2O[C@H](CO)[C@@H](O)[C@H](O)[C@H]2O)c(-c2ccc(O)c(O)c2)oc2cc(O)cc(O)c12 [Q-3-G, quercetin-3-β-D-glucoside] | – | – | – | CC50 ([2]; 24 h): > 200 µM |
| O=c1c(O)c(-c2ccc(O)c(O)c2)oc2cc(O)cc(O)c12 [Quercetin, quercetin] | > 100 µM | >20 µM | – | – |
| O=C1c2c(O)cc(O)cc2O[C@H](c2ccc(O)c(O)c2)[C@H]1O [Taxifolin, taxifolin] | – | – | > 200 µM | Cytotoxicity (cytotoxic concentration) [2, 3]: 150 µM |
| O=c1c(O)c(-c2ccccc2)oc2cc(O)cc(O)c12 [galangin] | – | – | > 80 µM | – |
| O=c1c(-c2ccc(O)cc2)coc2cc(O)cc(O)c12 [genistein] | > 100 µM | – | – | – |
| O=c1c(O)c(-c2ccc(O)cc2O)oc2cc(O)cc(O)c12 [morin] | – | – | > 200 µM | – |
| O=C1C[C@@H](c2ccc(O)cc2)Oc2cc(O)cc(O)c21 [naringenin] | – | – | > 200 µM | – |
| (−)-epigallocatechin gallate [EGCG] | – | – | – | Cytotoxicity (cytotoxic concentration) [2, 3]: >100 µM; CC50 ([2]; 24 h): > 100 µM |
